Source: patent US10336725B2, “Chemical compounds” (AstraZeneca AB, priority 2014, dated 2019)
Where a name gives a salt, the structure may show the parent alone.

Legend:
[1] = test system: ENaC β-subunit overexpressing transgenic mice; settings: administration to the lungs of the mice for 14 days after birth; cited from earlier work
[2] = test system: normal subjects; settings: treatment of normal subjects; cited from earlier work
[3] = target: T1, Sodium Channel ENaC (Homo sapiens, UniProt P37088+P51168+P51170); assay: Sodium Channel ENaC Ussing Chamber Test (short circuit current); format: cell-based; settings: human primary bronchial epithelial cells at air-liquid interface; inhibition of short circuit current; compounds added to the apical side
T1 construct: Human primary bronchial epithelial cells differentiated at air-liquid interface (ALI); host or cells: Human primary bronchial epithelial cells differentiated at air-liquid interface
T1 sequence (P37088 1-669): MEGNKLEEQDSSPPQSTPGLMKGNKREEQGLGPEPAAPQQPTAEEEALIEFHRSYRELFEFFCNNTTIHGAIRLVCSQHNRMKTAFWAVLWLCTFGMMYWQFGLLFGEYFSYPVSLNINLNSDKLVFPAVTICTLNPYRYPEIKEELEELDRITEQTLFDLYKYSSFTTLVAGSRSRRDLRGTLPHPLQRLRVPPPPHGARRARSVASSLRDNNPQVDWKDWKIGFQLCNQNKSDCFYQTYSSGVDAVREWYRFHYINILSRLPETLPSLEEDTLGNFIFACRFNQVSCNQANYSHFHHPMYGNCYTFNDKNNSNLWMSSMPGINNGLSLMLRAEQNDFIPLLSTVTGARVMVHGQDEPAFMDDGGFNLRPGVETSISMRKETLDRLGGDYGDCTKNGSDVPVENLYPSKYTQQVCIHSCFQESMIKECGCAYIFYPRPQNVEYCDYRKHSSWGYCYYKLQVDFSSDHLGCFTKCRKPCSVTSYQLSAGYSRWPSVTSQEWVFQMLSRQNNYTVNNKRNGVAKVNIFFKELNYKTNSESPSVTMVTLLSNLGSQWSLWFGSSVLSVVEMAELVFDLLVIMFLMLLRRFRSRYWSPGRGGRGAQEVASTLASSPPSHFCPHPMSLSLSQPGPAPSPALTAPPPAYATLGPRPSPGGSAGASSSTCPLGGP
T1 sequence (P51168 1-640): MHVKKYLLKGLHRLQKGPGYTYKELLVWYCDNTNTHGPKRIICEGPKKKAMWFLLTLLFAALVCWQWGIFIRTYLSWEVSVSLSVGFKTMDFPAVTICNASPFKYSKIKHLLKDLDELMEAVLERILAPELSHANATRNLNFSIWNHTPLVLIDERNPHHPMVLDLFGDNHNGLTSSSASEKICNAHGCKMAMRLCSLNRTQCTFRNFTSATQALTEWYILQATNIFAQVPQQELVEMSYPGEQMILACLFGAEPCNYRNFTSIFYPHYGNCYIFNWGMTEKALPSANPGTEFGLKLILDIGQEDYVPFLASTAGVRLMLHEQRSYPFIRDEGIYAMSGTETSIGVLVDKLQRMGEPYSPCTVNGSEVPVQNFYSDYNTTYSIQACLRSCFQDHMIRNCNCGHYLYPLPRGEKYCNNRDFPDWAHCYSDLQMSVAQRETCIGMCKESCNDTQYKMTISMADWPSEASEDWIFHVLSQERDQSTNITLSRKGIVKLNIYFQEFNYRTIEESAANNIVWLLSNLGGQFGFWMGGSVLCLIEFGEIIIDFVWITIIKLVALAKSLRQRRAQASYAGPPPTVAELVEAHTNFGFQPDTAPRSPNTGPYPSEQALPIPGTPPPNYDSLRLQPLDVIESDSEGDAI
T1 sequence (P51170 1-649): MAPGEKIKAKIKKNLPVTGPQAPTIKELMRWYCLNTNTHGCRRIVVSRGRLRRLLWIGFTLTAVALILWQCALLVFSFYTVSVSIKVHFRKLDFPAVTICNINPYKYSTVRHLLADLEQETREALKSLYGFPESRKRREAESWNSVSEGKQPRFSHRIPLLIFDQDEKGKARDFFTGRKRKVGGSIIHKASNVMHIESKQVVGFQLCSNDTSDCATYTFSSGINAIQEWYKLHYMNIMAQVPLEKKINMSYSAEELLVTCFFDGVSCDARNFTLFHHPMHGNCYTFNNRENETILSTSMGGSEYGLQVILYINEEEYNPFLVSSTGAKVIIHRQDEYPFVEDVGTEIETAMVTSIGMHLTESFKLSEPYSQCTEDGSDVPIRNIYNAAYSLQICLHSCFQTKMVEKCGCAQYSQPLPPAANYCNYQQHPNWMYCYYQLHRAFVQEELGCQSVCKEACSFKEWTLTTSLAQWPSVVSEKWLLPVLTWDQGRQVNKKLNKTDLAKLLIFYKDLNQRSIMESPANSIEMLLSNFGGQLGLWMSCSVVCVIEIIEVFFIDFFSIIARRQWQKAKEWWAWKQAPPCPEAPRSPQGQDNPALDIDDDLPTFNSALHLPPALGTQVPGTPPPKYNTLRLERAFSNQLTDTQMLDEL
Protocol: Sodium Channel ENaC Ussing Chamber Test
Human primary bronchial epithelial cells differentiated at air-liquid interface (ALI) on snapwell permeable supports (MatTek Corporation, MA, USA, cat no AIR-100-SNP) were maintained at ALI culture in a humidified incubator at 37° C. and 5% CO2. Basolateral medium (MatTek Corporation, MA, USA cat no AIR-100-MM-ASY) was changed every second day. Mucus or liquid formed on the apical side was gently aspirated every second day to maintain viability and performance of the cells.
The transepithelial voltage between the luminal/apical and basolateral membrane were measured in the ussing chamber consisted of vertical, in-house manufactured ussing chambers, DVC-1000 V/C clamps with preamplifiers (World Precision Instruments), electrode kits (EK1, World Precision Instruments), Power Lab with Chart5 software, water bath with external circulation and carbogen gas distribution and regulation system. Electrodes used in the set up were casted manually using 4% agarose in 0.9% sterile NaCl according to the manufacturer's recommendation.
The ussing chambers were assembled with an empty snapwell membrane (Costar 3407) and electrodes contained in Kreb's buffer (SIGMA-ALDRICH cat no K3753) for one hour at 37° C. in presence of 95% oxygen and 5% carbon dioxide. After this equilibration step the system was compensated for fluid resistance and input offset.
The equilibrated chambers were reassembled with a snapwell containing ALI cells and after 20 minutes stabilisation cumulative doses of the compounds were added to the apical side of the membrane. After the final dose 10 μM Benzamil was added to reach maximum.
All test compounds, including the reference compound, were diluted from 10 mM stocks in 100% DMSO and added to opaque 96-well plates (Greiner, Cat No. 651201). Dilution series of 12 doses were prepared in DMSO, starting with 3 μM followed by 10 times dilution steps.
Chart5 for Windows software was used to measure the value of the short circuit current after each compound addition. The data was transferred into Excel and analysed using IDBS XLfit® 5.2 (ID Business Solutions Ltd). The molar concentration of test or reference compound producing 50% inhibition (curve IC50) was derived by fitting data to a 4-parameter logistic function of the form: y=(A+((B−A)/(1+(((10^C)/x)^D))))
A The bottom plateau of the curve, i.e. the final minimum y value
B The top of the plateau of the curve i.e. the final maximum y value
C The log10 x value at a y value of 50%.

N=C(N)NC(=O)c1nc(Cl)c(N)nc1N [amiloride]
mortality [1]: significantly reduced
ASL volume [2]: increases
MCC rates [2]: increases

CCCCCCN(CCC(=O)N1CCC(CNC[C@H](CNC(=O)c2nc(Cl)c(N)nc2N)Cc2ccccc2C)CC1)C[C@@H](O)[C@@H](O)[C@H](O)[C@H](O)CO [Example 8, 3,5-diamino-6-chloro-N—((R)-3-((1-(3-(hexyl((2R,3R,4R,5R)-2,3,4,5,6-pentahydroxyhexyl)amino)propanoyl)piperidin-4-yl)methylamino)-2-(2-methylbenzyl)propyl)pyrazine-2-carboxamide]
IC50 [3]: 0.316 nM

CCCCCCN(CCNC(=O)c1ccc(CCNC[C@H](CNC(=O)c2nc(Cl)c(N)nc2N)Cc2ccccc2C)cc1)C[C@H](O)[C@@H](O)[C@H](O)[C@H](O)CO [Example 12, 3,5-diamino-6-chloro-N—((R)-3-((4-((2-(hexyl((2S,3R,4R,5R)-2,3,4,5,6-pentahydroxyhexyl)amino)ethyl)carbamoyl)phenethyl)amino)-2-(2-methylbenzyl)propyl)pyrazine-2-carboxamide Dihydrochloride]
IC50 [3]: 0.251 nM
